Measurements reported in patent US20250177339A1, “Methods for Treating Tauopathy” (BioJiva LLC, priority 2020, published 2025).
“Also recorded” adds a separate entry of the source.

Legend:
[1] = Pharmacokinetic sampling: ratio of D2-AA to AA in red blood cells of treated patients; type: in vivo, human
Experimental: (§1) Three patients diagnosed with likely PSP underwent baseline assessment using the 28-item Progressive Supranuclear Palsy Rating Scale (PSPRS) and the Unified Parkinson's Disease Rating Scale (UPDRS). They were then treated with D2-Lin (2.88 g BID; 5.76 g total daily dose) and observed for disease progression. The second patient had their dose increased (2.88 g TID; 8.64 g total daily dose) after the first year of treatment. During the treatment period, scores in the 2 rating scales were determined every 3 months. Pharmacokinetic (PK) sampling was performed at month 3. These analytes included plasma and RBC membrane levels of (D2-LA) and its centrally active metabolite D2-AA.
At 3 months, the following data was collected:
At 12 months, the following data was collected:
The above results evidence that a percent ratio of 11,11-D2-AA to AA in red blood cells of about 3% is necessary to achieve therapeutic results.

SROS MSCs [2] = experiment: Rate of lipid peroxidation (BODIPY C11) in SROS/PSP MSCs; type: cell-based, human; settings: 72-hour incubation; for rate of lipid peroxidation (LPO), in words: SROS/PSP MSCs, BODIPY C11
Experimental: (§2) The effect of D2-Lin on mesenchymal stem cells derived from patients with SROS was assessed using non-deuterated Lin as a control. MSC preparations from bone marrow aspirates from control subjects were compared to 3 subjects with SROS, following protocols described in Hill S., et al., Free Radic. Biol. Med. (2012) 53:893-906; and Cotticelli M G., et al., Redox Biol. (2013) 1:398-404.
(§3) LPO has been implicated as an early and pivotal factor in SROS. Specifically, increased levels of n-6 PUFA oxidation products such as 4-HNE were reported, as a direct consequence of the LPO chain reaction. Accordingly, the difference in basal MMP and ROS generation between control and the 3 cell lines of SROS MSCs was associated with increased rates of LPO, as detected by the LPO-specific probe, BODIPY C11.
(§4) MSC preparations from BM were obtained from control subjects and from the PSP subjects following previously described protocols. In short, MSCs were isolated from BM aspirates seeding 50,000 mononucleated cells/cm2 in αMEM (Thermo Fisher Scientific, Waltham, MA, USA) supplemented with 10% fetal bovine serum (FBS; Thermo Fisher Scientific), in T75 flasks. The cultures were incubated at 37° C., 20% O2, 5% CO2. Medium changes were performed twice a week. Two weeks after initial seeding, primary MSC colonies were detached with a 10-minute incubation at 37° C. with TrypLE Select Enzyme (Thermo Fisher Scientific) and replated at 4000 cells/cm^2 in the same medium. MSC identity was previously assessed. Subsequent passages were performed following the same steps. Passage 4-6 MSCs were used for all experiments. […]
(§5) Lipid peroxidation was measured using confocal microscopy (Zeiss 710 LSM with an integrated META detection system). The rate of lipid peroxidation was measured using C11-BODIPY 581/591 ([…]; Molecular probes) which was excited by the 488 and 543 nm laser line and fluorescence measured using a band-pass filter from 505 to 550 nm and 560 nm long-pass filter (40× oil-objective). […]

[3] = test system: MSCs derived from patients with SROS; experiment: Mitochondrial health (morphology, number, function) of SROS MSCs; type: cell-based, human; settings: incubation for 72 hours
Experimental: as §2
These include changes in mitochondrial morphology, number, and function.

SROS MSCs [4] = experiment: Glutathione level (monochlorobimane) in SROS/PSP MSCs; type: cell-based, human; settings: for glutathione (GSH) level, in words: SROS/PSP MSCs, MCB intensity
Experimental: as §2
Glutathione-related machinery is the major mechanism involved with slowing down the inhibition/propagation the LPO chain as well as mopping up the toxic end products of LPO. Consumption of the endogenous antioxidant glutathione is an indirect measure of oxidative stress.
as §4
For assessments of glutathione levels, the PSP-MSCs cultures were incubated with 50 μM monochlorobimane (MCB) (Molecular Probes, Invitrogen) for 40 minutes in HEPES buffered salt solution prior to imaging. Cells were then washed with HEPES buffered salt solution and images of the fluorescence of the MCB-GSH were acquired using a Zeiss 710 CLSM with excitation at 405 nm and emission at 435-485 nm. Mitochondrial ROS generation rate was assessed using MitoTracker® Red CM-H2XRos (Thermo Fisher Scientific) which accumulates into mitochondria upon oxidation. The fluorescence measurement was obtained by excitation with 561 nm laser and emission detected above 580 nm. Mitochondrial membrane potential (ΔΨm) was assessed using 25 nM tetramethylrhodamine methyl ester (TMRM, Thermo Fisher Scientific) at 560 nm excitation and fluorescence was measured above 580 nm. Z-stack images were collected and the fluorescence intensity of TMRM was analyzed using Zen software (Zeiss). […]
Glutathione levels were measured using MCB. […]

SROS MSCs [5] = experiment: Mitochondrial shape in SROS MSCs; type: cell-based, human; settings: pre-treatment
Experimental: as §2
Presynaptic terminals typically contain multiple mitochondria. Misshaped mitochondria can clog the pathways that transport them along neurons and through long axons and elaborate dendritic arbors. Mattson et al., Neuron (2009) 60:748-766. Accordingly, mitochondrial shape is another characteristic of mitochondrial health. Also, the communication pathway between ER and mitochondria through MAM is compromised in misshaped mitochondria, further disturbing protein folding, lipid metabolism, Ca^2+ homeostasis and apoptosis. Lee et al., Mol. Cells (2018) 41:1000-1007. Coincident with the improvements in MMP with D-PUFA incubation, the abnormalities of mitochondrial shape seen in SROS MSCs were improved with D-PUFA pre-treatment, resulting in more uniformly looking mitochondria.

control MSC = experiment: Mitochondrial DNA level (PicoGreen fluorescence in non-nuclear area) in control MSCs; type: cell-based, human; settings: after 72 hours incubation, from 100% before
Experimental: as §2
(§6) The number of mitochondria within the cells is regulated by the balance between mitochondrial biogenesis and mitophagy. Accordingly, for the normal maintenance of the mitochondrial balance, SROS-MSCs should activate mitochondrial biogenesis. […] Various factors, for example excessive fusion can result in a lower number of mitochondria in the cell, leading to impaired respiration, a lower production of ATP, and increased oxidative damage. Arun et al., Curr. Neuropharmacol. (2016) 14:143-154. However, after 72 hours incubation of the cells with D2-PUFAs mitochondrial DNA increased for both control and SROS MSCs.

SROS-MSCs = experiment: Mitochondrial membrane potential (fluorescent indicator, TMRM) in SROS MSCs; type: cell-based, human; settings: SROS cells from SROS patients; incubation for 72 hours
Experimental: as §2
(§7) MMP is an important indicator of mitochondrial health and is typically kept at […] values (100-140 mV). A long-lasting drop or rise of normal MMP levels may induce loss of cell viability and various pathologies. ROS and LPO levels are directly linked to MMP, and increase exponentially at MMP>140 mV. […]
(§8) MSC preparations from BM were obtained from control subjects and from the PSP subjects following previously described protocols. […] MSC identity was previously assessed. […]
(§9) For assessments of glutathione levels, the PSP-MSCs cultures were incubated with 50 μM monochlorobimane (MCB) (Molecular Probes, Invitrogen) for 40 minutes in HEPES buffered salt solution prior to imaging. Cells were then washed with HEPES buffered salt solution and images of the fluorescence of the MCB-GSH were acquired using a Zeiss 710 CLSM with excitation at 405 nm and emission at 435-485 nm. […] The fluorescence measurement was obtained by excitation with 561 nm laser and emission detected above 580 nm. […]

control MSCs [6] = experiment: Mitochondrial membrane potential (fluorescent indicator, TMRM) in control MSCs; type: cell-based, human; settings: incubation for 72 hours
Experimental: as §2, §7, §8, §9

[7] = test system: patients diagnosed with likely PSP; experiment: Progressive Supranuclear Palsy Rating Scale (PSPRS) in treated patients; type: in vivo, human; settings: three PSP patients; 2.88 g BID; after 3 months of therapy; historical decline 0.91 points/month; +/-0.23 SEM
Experimental: as §1
(§10) The three patients were 2 males ([…]) and one person each of whom had pre-treatment symptom duration of 6 years and 3 years for the two males and 2 years for the person. The baseline PSPRS for the two males was 17 and 12 respectively and 13 for the person. The baseline UPDRS for the two males was 44 and 36 respectively and 21 for the person.
(§11) After 3 months of therapy, the slope of the PSPRS changed from the historical decline of 0.91 points/month to a mean of decline of 0.16 points/month (+/−0.23 SEM). The UPDRS slope changed from an expected increase of 0.95 points/month to an average increase in score of 0.28 points/month (+/−0.41 SEM).

SROS-MSC = experiment: Mitochondrial DNA level (PicoGreen fluorescence in non-nuclear area) in SROS MSCs; type: cell-based, human; settings: after 72 hours incubation, from 67.5% before, relative to control MSC 100%
Experimental: as §2, §6

[8] = test system: patients diagnosed with likely PSP; experiment: Unified Parkinson's Disease Rating Scale (UPDRS) in treated patients; type: in vivo, human; settings: three PSP patients; 2.88 g BID; after 3 months of therapy; expected increase 0.95 points/month; +/-0.41 SEM
Experimental: as §1, §10, §11

control MSCs [9] = experiment: Rate of lipid peroxidation (BODIPY C11) in control MSCs; type: cell-based, human; settings: 72-hour incubation
Experimental: as §2, §3
as §5, with “oil-objective). Illumination intensity was kept to a minimum (0.1-0.2% of laser output) to prevent phototoxicity and the pinhole was set to give an optical slice of […].” for “oil-objective).”

| % ratio of 11,11-D2-AA to AA ([1]; Patient 1, evaluated at 4 months of D2-Lin treatment) [%] | % ratio of 11,11-D2-AA to AA ([1]; Patient 1, evaluated at 13 months of D2-Lin treatment) [%] | % ratio of 11,11-D2-AA to AA ([1]; Patient 2, at 3 months of D2-Lin treatment) [%] | % ratio of 11,11-D2-AA to AA ([1]; Patient 2, at 12 months of D2-Lin treatment) [%] | % ratio of 11,11-D2-AA to AA ([1]; Patient 3, at 3 months of D2-Lin treatment) [%] | % ratio of 11,11-D2-AA to AA ([1]; Patient 3, at 12 months of D2-Lin treatment) [%] | Structure (SMILES) | rate of lipid peroxidation (LPO) (SROS MSCs [2]; SROS MSCs, % of control, from 161.8% before, N=8) [%] | rate of lipid peroxidation (LPO), in words (SROS MSCs [2]) | mitochondrial morphology, number, and function [3] | glutathione (GSH) level, in words (SROS MSCs [4]) | glutathione (GSH) level, in words (SROS MSCs [4]; listed as D2-PUFAs) | abnormalities of mitochondrial shape (SROS MSCs [5]) | level of mitochondrial DNA (estimation of number of mitochondria) (control MSC) [%] | mitochondrial membrane potential (MMP) (SROS-MSCs) | mitochondrial membrane potential (MMP) (control MSCs [6]) | slope of the PSPRS, mean decline [7] [points/month] | level of mitochondrial DNA (estimation of number of mitochondria) (SROS-MSC) [%] | UPDRS slope, average increase in score [8] [points/month] | rate of LPO, % of the pre-treatment value (control MSCs [9]) [%] | glutathione levels less than those found in the D2-Lin test (SROS MSCs [4]; PSP MSCs, after incubation, compared with D2-Lin-incubated PSP MSCs) |
| --- | --- | --- | --- | --- | --- | --- | --- | --- | --- | --- | --- | --- | --- | --- | --- | --- | --- | --- | --- | --- |
| 5.9 | 10.5 | 3.3 | 6.9 | 5 | 8.6 | [2H]C([2H])(/C=C\C/C=C\C/C=C\CCCC(=O)O)/C=C\CCCCC [13,13-D2-Arachadonic acid] |  |  |  |  |  |  |  |  |  |  |  |  |  |  |
|  |  |  |  |  |  | [2H]C([2H])(/C=C\CCCCC)/C=C\CCCCCCCC(=O)O [D2-Lin, 11,11-D2-Linoleic acid] | 109.8 | reversed; also recorded: restored the SROS MSCs to normal levels; also recorded: returned to normal levels | restores these parameters to control MSC levels | reversed; also recorded: restored to HC levels | significantly increased | improved | 109 | reduced | no effect | 0.16 | 105.4 | 0.28 | 84.3 |  |
|  |  |  |  |  |  | CCCCC/C=C\C/C=C\CCCCCCCC(=O)O [H2-LA, Non-deuterated linoleic acid, reference compound] |  | remained elevated at over two times that of the treated levels |  | remained low |  |  |  |  |  |  |  |  |  | about 30% |
